# Laboratory results reported in PubChem BioAssay (NCI).
#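 1) Cells in 96-well plates. 2) Compound, 48 h, 5 concentrations. 3) Linear interpolation between surrounding doses. 4) Unreached endpoint = highest concentration. GI50 is the concentration that inhibits growth by half. TGI: concentration producing complete growth inhibition.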 Where a SMILES comes first, the peptide text is derived from it. Bridges are numbered along the chain shown (N, C = ends). [ ]: non-standard residue; d: D form. The star is where a group is joined. ξ: configuration not given here. ξDab(CH2SO3H) = NC(CCNCS(=O)(=O)O)C(=O)O; Heptanoyl(6-Me) = CC(C)CCCCC(=O)*; Dab = NCC[CH](N)C(=O)O
# Test system: MDA-MB-468 breast
# Assay: NCI-60 cell line screen, 48 h
SMILES,GI50 [µM],TGI [µM]
N#Cc1c(N)n2c(nc1=Nc1ccc(Cl)cc1)sc1cc(Cl)ccc12,3.62,> 100
CC(C)(C)[Si](C)(C)OC1[C@@H](O[Si](C)(C)C(C)(C)C)[C@@H](CNC(=O)NC(=O)CF)O[C@H]1n1cnc2c(NC(=O)Nc3ccccc3)ncnc21 (stereo not given in full),3.21,20.1
N/C(=N/N=C/c1ccccc1)N/N=C\c1ccccc1,2.52,11.3
COc1cc2c(c(OC)c1OC)-c1ccc(OC)c(=O)cc1[C@@H](NC(C)=O)CC2,< 0.01,> 100
Cc1cc(O)cc(C)c1/C=C/c1cncc(C(N)=O)c1,0.749,4.62
COc1cc(C(=O)N2CCN(c3ccccc3)CC2)c2ccccc2n1,0.0318,0.211
CC[C@]12CC(C(=O)OC)=C3Nc4ccccc4[C@@]34CCN(C14)[C@@H]1c3cc4c(cc3O[C@@H]1[C@H]2O)NC1=C(C(=O)OC)C[C@@]2(CC)C3N(CC[C@@]143)C[C@H]1O[C@H]12 (stereo not given in full),0.129,1.05
[Cl][Hg][c]1ccc(Cl)s1,1.19,2.77
CCN1C(=O)N(CC)C2C1NN=c1s/c(=C\c3ccco3)c(=O)n12 (stereo not given),0.356,> 100
Cn1cc(C2=C(c3c4n(c5ccccc35)CCC(CN)C4)C(=O)NC2=O)c2ccccc21 (stereo not given),2.91,6.89
COc1cccc(/C=N/NC(=O)c2ccccc2N2CCCC2)c1O,3.33,> 100
COc1ccc(Nc2cc(C)nc(NCc3ccccc3)n2)cc1,0.776,2.51
C[C@]12CC[C@@H]3c4cc(O)c(O)cc4CC[C@H]3[C@@H]1CC[C@@H]2O,3.82,21.1
Cc1ccc2c(n1)C(=O)C(Cl)=C(Nc1ccccc1C(=O)OC(C)(C)C)C2=O,1.47,3.25
COc1cc2ncnc(Nc3cccc(Cl)c3F)c2cc1OC(=O)N1CCN(C)C[C@H]1C,0.0607,1.27
CN1CCN(Cc2ccc(NC(=O)c3cncc(C#Cc4cnc5ccc(OCC(C)(C)O)nn45)c3)cc2C(F)(F)F)CC1,0.183,0.409
C=C1C(=O)O[C@H]2[C@H]1CC/C(C=Nc1c(N)cc(C(F)(F)F)cc1C(F)(F)F)=C\CC[C@@]1(C)O[C@@H]21,1.5,3.21
CCC(C)C1NC(=O)C(CCNCS(=O)(=O)O)NC(=O)C(NC(=O)C(CCNCS(=O)(=O)O)NC(=O)C(NC(=O)C(CCNCS(=O)(=O)O)NC(=O)CCCCC(C)C)C(C)O)CCNC(=O)C(C(C)O)NC(=O)C(CCNCS(=O)(=O)O)NC(=O)C(CCNCS(=O)(=O)O)NC(=O)C(C(C)CC)NC1=O (stereo not given) ({Heptanoyl(6-Me)}-[ξDab(CH2SO3H)]T[ξDab(CH2SO3H)][Dab][ξDab(CH2SO3H)]II[ξDab(CH2SO3H)][ξDab(CH2SO3H)]T; lactam 4-C; configuration not given here),0.807,4.89
N=C(N)SCc1c2ccccc2c(CSC(=N)N)c2ccccc12,2.32,9.81
COc1ccc2c(O)c(/C=C3\N=Nc4ccccc43)oc2c1C[C@@H]1CCNC[C@H]1F,10.4,23.6
Cc1ccc2c(c1)c(Sc1ccc(C(=O)NO)cc1)c1n2CN(C)CC1,1.1,2.97
CCCCCCCCCCCCSC1=C(Cl)C(=O)C(OC)=C(OC)C1=O,0.438,16.9
CC/C(=C(/c1ccc(O)cc1)c1ccc(OCCN)cc1)c1ccccc1,1.57,3.94
C[C@@H](NC(=O)/C(C#N)=C/c1ccc([N+](=O)[O-])cc1)c1ccccc1,1.74,3.37

SMILES,GI50 [µM],TGI [µM]
Cc1cc(Nc2ncc3c(n2)N(C)C(=O)N(c2cc(NC(=O)c4cccc(C(F)(F)F)c4)ccc2C)C3)n(C)n1,0.0579,0.396
CCCCCCCCC/C(=N\NC(=O)c1ccncc1)c1ccc(O)c(O)c1O,0.161,1.11
CN(C)CCCOc1c2ccc(Cl)cc2nc2c1oc1ccccc12,1.95,5.07
Clc1ccc(Nc2ccnc(N3CCN(c4ccnc5cc(Cl)ccc45)CC3)n2)cc1,2.08,5.56
N#C[Se]CCN1C(=O)C2C(C1=O)[C@H]1C=C[C@@H]2S1 (stereo not given in full),2.6,7.71
CCCCCCn1c(-c2ccc(C(=O)O/N=C(\N)c3ccc4ccccc4c3)cc2)nc(-c2ccccc2)c1-c1ccccc1,22.2,97.7
O=C(Nc1ccc(-n2cc(-c3ccncc3)c(-c3ccc(O)c(Cl)c3)n2)cc1)Nc1ccc(Cl)c(C(F)(F)F)c1,2.96,13.1
O=[N+]([O-])c1ccc(C2CC(c3ccccc3)=Nc3ccccc3S2)cc1 (stereo not given),> 100,> 100
C=C1[C@@H](C)C2[C@H](Cc3ccccc3)NC(=O)[C@]23[C@H](OC(C)=O)/C=C/[C@@](C)(O)C(=O)[C@@H](C)C/C=C/[C@H]3[C@@H]1O (stereo not given in full),0.0389,12.7
CC[C@@H](C(=O)[C@H](C)[C@H](O)[C@@H](C)[C@H]1O[C@H]([C@@H](CC)C(=O)N(CC)CC)CC[C@H]1C)C1O[C@]2(C=C[C@@H](O)[C@]3(CC[C@@](C)([C@H]4CC[C@](O)(CC)[C@H](C)O4)O3)O2)[C@H](C)C[C@@H]1C (stereo not given in full),1.81,5.8
COCCNc1ccc2c3c(cccc13)C(=O)N(CCN(C)C)C2=O,7.1,> 25
O=C(/C(=C/c1ccc([N+](=O)[O-])cc1)SCc1ccc(Cl)cc1)c1ccc(F)cc1,2.87,9.22
N#Cc1c(N2CCOCC2)nc(=S)[nH]c1-c1ccccc1,25.8,> 100
S=C(NCCNC(=S)[S][Sn]([c]1ccccc1)([c]1ccccc1)[c]1ccccc1)[S][Sn]([c]1ccccc1)([c]1ccccc1)[c]1ccccc1,0.0129,0.0419
CCOC(=O)c1cc(C(=O)c2cc(OC)c(OC)c(OC)c2)n2c1ccc1ccccc12,0.158,
CN1CCC2(CC1)NC(=O)c1c(c3ccc(Cl)c(Cl)c3n1C)C2C#N (stereo not given),2.18,6.87
CC(=O)Nc1c(I)c(NC(C)=O)c(I)c(C(=O)O)c1I,> 100,> 100
CCOC(=O)Nc1nc2ccc(Br)cc2s1,> 50,> 50
Cc1nc(-c2nc(-c3ccc(OC(F)(F)F)cc3)no2)nn1Cc1cccc(N2CCC(S(C)(=O)=O)CC2)c1,< 0.01,3.9
O=C([O][Hg][CH2]C1OCCOC1[CH2][Hg][O]C(=O)c1ccccc1)c1ccccc1 (stereo not given),1.71,3.08
Cn1nc(C(F)(F)F)cc1-c1c[nH]c(OCc2ccc(Cl)cc2)c(-c2ccc(Cl)c(C(F)(F)F)c2)c1=O,0.94,4.73
COc1cc(/C(=C2/O[C@@H]([C@H]3COC(C)(C)O3)[C@H]3OC(C)(C)O[C@@H]23)c2ccc3ccccc3c2)cc(OC)c1OC,4.02,21.1
COc1cc2c(cc1Cc1cccc(Cl)c1F)c(=O)c(C(=O)O)cn2[C@@H](CO)C(C)C,3.26,9.32
CN(C)CCCCC(C(=O)CBr)(c1ccccc1)c1ccccc1,1.09,2.89
